This test addresses Mitogen-activated protein kinase 9 (Homo sapiens, UniProt P45984). Put plainly: Inhibition of His6-tagged JNK2 (unknown origin) assessed as reduction in c-Jun phosphorylation using GST-c-Jun (1 to 79 residues) and [gamma32P]ATP incubated for 1 hr by scintillation counting assay.

This passage reports IC50 results from ChEMBL document CHEMBL3882725, “Indazole derivatives as JNK inhibitors and compositions and methods related thereto” (2002).

By IC50 is commonly meant the midpoint of a concentration-inhibition curve.

Mitogen-activated protein kinase 9, sequence (P45984 whole entry, the tested form may be a part): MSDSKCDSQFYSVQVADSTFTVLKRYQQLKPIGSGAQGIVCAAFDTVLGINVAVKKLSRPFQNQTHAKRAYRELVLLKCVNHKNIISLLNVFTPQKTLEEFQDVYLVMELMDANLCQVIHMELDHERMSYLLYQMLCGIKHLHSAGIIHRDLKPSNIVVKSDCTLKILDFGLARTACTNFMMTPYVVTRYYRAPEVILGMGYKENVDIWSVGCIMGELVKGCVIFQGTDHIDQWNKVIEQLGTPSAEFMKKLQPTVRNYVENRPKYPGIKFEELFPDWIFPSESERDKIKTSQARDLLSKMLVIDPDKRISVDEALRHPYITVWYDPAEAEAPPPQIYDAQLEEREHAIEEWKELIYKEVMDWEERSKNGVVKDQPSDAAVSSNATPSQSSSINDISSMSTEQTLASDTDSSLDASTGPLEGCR

For the compound `Nc1ccc2[nH]nc(-c3cccc(C(F)(F)F)c3)c2c1`, the IC50 was not above 10 µM. As for `Fc1ccc(-c2n[nH]c3ccc(-c4n[nH]c(CN5CCOCC5)n4)cc23)cc1`, the IC50 lay within 1 to 10 µM. For `O=C(Nc1cccc(-c2n[nH]c3ccc(-c4nc[nH]n4)cc23)c1)c1ccco1` the value was 0.5 to 10 µM. Turning to `Nc1ccc(-c2n[nH]c3ccc(-c4nc[nH]n4)cc23)cc1`, the IC50 was in the range of 1 to 10 µM. For `COc1ccc2cc(-c3n[nH]c4ccc(C(N)=O)cc34)ccc2c1` the value was 1 to 10 µM. With `Fc1ccc(-c2n[nH]c3ccc(-c4n[nH]c(C5CCCN5)n4)cc23)cc1` (stereo unspecified) the figure was 0.5 to 10 µM; with `CN(C)Cc1n[nH]c(-c2ccc3[nH]nc(-c4cccc(C(=O)NC5Cc6ccccc6C5)c4)c3c2)n1`, 0.5 to 10 µM; with `c1cc2[nH]nc(-c3ccc4c(c3)OCCO4)c2cc1-c1n[nH]c(CN2CCCC2)n1`, 1 to 10 µM. Turning to `O=C(Nc1ccc2[nH]nc(-c3ccccc3)c2c1)c1ccccc1O`, the IC50 is 1 to 10 µM. For the compound `CC(=O)c1ccc2[nH]nc(-c3ccc(F)cc3)c2c1`, the IC50 lay within 1 to 10 µM.

In the case of `CCOC(=O)CCc1ccc2[nH]nc(-c3ccc(F)cc3)c2c1`, the IC50 is not above 10 µM.

Regarding `O=C(Nc1cccc(-c2n[nH]c3ccc(-c4nc[nH]n4)cc23)c1)C(=O)c1ccco1`, the 50% inhibitory concentration (IC50) fell in the range of 1 to 10 µM. For `O=C(O)C(=O)Nc1cccc(-c2n[nH]c3ccc(-c4nc[nH]n4)cc23)c1`, the concentration for half-maximal inhibition (IC50) was 0.5 to 10 µM. With `CC(C)(C)OC(=O)CCNC(=O)c1ccc2[nH]nc(-c3ccc(F)cc3)c2c1` the figure was not above 10 µM; with `O=C(NCCOc1cccc(-c2n[nH]c3ccc(-c4ncn[nH]4)cc23)c1)OCc1ccccc1`, 1 to 10 µM; with `O=C(O)c1ccc(C(=O)Nc2ccc3[nH]nc(-c4ccc(F)cc4)c3c2)cc1`, 1 to 10 µM. For `NCCOc1cccc(-c2n[nH]c3ccc(-c4ncn[nH]4)cc23)c1` the value was not above 10 µM; for `O=C(O)C1CCN(C(=O)c2ccc3[nH]nc(-c4ccc(F)cc4)c3c2)CC1`, not above 10 µM.

In the case of `CN(C)Cc1n[nH]c(-c2ccc3[nH]nc(-c4cc5ccccc5o4)c3c2)n1`, the half-maximal inhibitory concentration (IC50) was in the range of 1 to 10 µM. With `Fc1ccc(-c2n[nH]c3ccc(/C=C/c4ccncc4)cc23)cc1` the figure was not above 10 µM; with `c1cncc(-c2n[nH]c3ccc(-c4nnn[nH]4)cc23)c1`, not above 10 µM; with `C(=C\c1n[nH]c2ccc(-c3nc[nH]n3)cc12)/c1ccccc1`, 1 to 10 µM. For the compound `CNC(=O)c1ccc2[nH]nc(-c3cc4ccccc4o3)c2c1`, the IC50 fell in the range of 1 to 10 µM. With `NC(=O)c1ccc2[nH]nc(-c3cccc(NC(=O)Cc4ccc(Cl)cc4Cl)c3)c2c1`, the IC50 lay in the range of 1 to 10 µM. With `NC(=O)c1ccc2[nH]nc(-c3cccc(NC(=O)Cc4ccncc4)c3)c2c1` the figure was 0.5 to 10 µM; with `O=C(NC1CCCCC1)c1cccc(-c2n[nH]c3ccc(-c4nc[nH]n4)cc23)c1`, 0.5 to 10 µM; with `O=C(N[C@H]1CCc2ccccc21)c1cccc(-c2n[nH]c3ccc(-c4ncn[nH]4)cc23)c1`, 0.5 to 10 µM. With `CN(C)Cc1n[nH]c(-c2ccc3[nH]nc(-c4cccc(C(=O)Nc5ccc(F)cc5)c4)c3c2)n1` the figure was 0.5 to 10 µM; with `Oc1cccc(-c2n[nH]c3ccc(-c4nnn[nH]4)cc23)c1`, 0.5 to 10 µM; with `Fc1ccc(-c2n[nH]c3ccc(-c4nnc[nH]4)cc23)cc1`, 0.5 to 10 µM. On to `O=C(Nc1cccc(O)c1)c1ccc2[nH]nc(-c3ccc(F)cc3)c2c1`, for which the IC50 was in the range of 1 to 10 µM. With `COCC(=O)Nc1cccc(-c2n[nH]c3ccc(-c4nnc[nH]4)cc23)c1` the figure was 0.5 to 10 µM; with `O=[N+]([O-])c1cccc(/C=C/c2ccc3[nH]nc(-c4ccc(F)cc4)c3c2)c1`, not above 10 µM; with `O=C(NCc1ccccn1)c1ccc2[nH]nc(-c3ccc(F)cc3)c2c1`, 1 to 10 µM. Turning to `CC(C)(C)OC(=O)CNC(=O)c1ccc2[nH]nc(-c3ccc(F)cc3)c2c1`, the IC50 lay in the range of 1 to 10 µM. Consider `O=C(NCCCN1CCOCC1)c1ccc2[nH]nc(-c3ccc(F)cc3)c2c1`, for which the IC50 was not above 10 µM. With `CC(O)CNC(=O)c1ccc2[nH]nc(-c3ccc(F)cc3)c2c1` (stereo unspecified) the figure was 1 to 10 µM.

Turning to `O=C(O)c1ccc(CNC(=O)c2ccc3[nH]nc(-c4ccc(F)cc4)c3c2)cc1`, the IC50 is 1 to 10 µM. As for `Fc1ccc(-c2n[nH]c3ccc(-c4nnc(-c5cccnc5)[nH]4)cc23)cc1`, the half-maximal inhibitory concentration (IC50) is 1 to 10 µM. `O=C1CCCN1CCOc1cccc(-c2n[nH]c3ccc(-c4ncn[nH]4)cc23)c1`: the concentration for half-maximal inhibition (IC50) was in the range of 1 to 10 µM. Consider `COc1cccc(-c2n[nH]c3ccc(-c4nnn[nH]4)cc23)c1`, for which the IC50 lay within 0.5 to 10 µM. With `O=C(Nc1cccnc1)c1ccc2[nH]nc(-c3ccc(F)cc3)c2c1` the figure was 1 to 10 µM; with `CN(C)Cc1nc(-c2ccc3[nH]nc(-c4cccc(C(=O)NCc5ccc(F)cc5)c4)c3c2)n[nH]1`, 0.5 to 10 µM; with `CC(C)CNC(=O)c1ccc2[nH]nc(-c3cc4ccccc4o3)c2c1`, 1 to 10 µM. For `NC(=O)c1ccc2[nH]nc(-c3ccc(F)cc3)c2c1` the value was 1 to 10 µM. Regarding `CN(C)CC(=O)Nc1ccc(-c2n[nH]c3ccc(-c4nc[nH]n4)cc23)cc1`, the IC50 was 1 to 10 µM. With `Fc1ccc(-c2n[nH]c3ccc(-c4nc(-c5ccco5)n[nH]4)cc23)cc1` the figure was 1 to 10 µM. With `CCOC(=O)C1CCN(C(=O)c2ccc3[nH]nc(-c4ccc(F)cc4)c3c2)CC1` the figure was not above 10 µM; with `NC(=O)c1ccc2[nH]nc(-c3cccc(NC(=O)Cc4ccsc4)c3)c2c1`, 1 to 10 µM; with `O=[N+]([O-])c1ccc2[nH]nc(-c3ccccc3)c2c1`, not above 10 µM. With `Fc1ccc(-c2n[nH]c3ccc(-c4cc[nH]n4)cc23)cc1`, the half-maximal inhibitory concentration (IC50) was in the range of 1 to 10 µM. With `O=C(Nc1ccc2[nH]nc(-c3ccc(F)cc3)c2c1)c1ccco1` the figure was 1 to 10 µM. Turning to `O=C(CCc1ccccc1)Nc1cccc(-c2n[nH]c3ccc(-c4nc[nH]n4)cc23)c1`, the IC50 was 0.5 to 10 µM. For `Cc1nnc(-c2ccc3[nH]nc(-c4ccc(F)cc4)c3c2)o1` the value was 1 to 10 µM. With `O=C(O)Cc1nnc(-c2ccc3[nH]nc(-c4ccc(F)cc4)c3c2)[nH]1` the figure was 1 to 10 µM. For the compound `Oc1ccc(-c2n[nH]c3ccc(-c4ncn[nH]4)cc23)cc1`, the IC50 fell in the range of 1 to 10 µM. For `Cc1ccc(-c2n[nH]c3ccc(-c4nnc[nH]4)cc23)cc1` the value was 1 to 10 µM; for `Cc1ccccc1C(=O)Nc1ccc2[nH]nc(-c3ccc(F)cc3)c2c1`, 1 to 10 µM.

Consider `O=C(Nc1ccc(-c2n[nH]c3ccc(-c4nn[nH]n4)cc23)cc1)c1cccnc1`, for which the half-maximal inhibitory concentration (IC50) fell in the range of 0.5 to 10 µM. As for `FC(F)(F)c1ccc(-c2n[nH]c3ccc(-c4ncn[nH]4)cc23)cc1`, the IC50 is 1 to 10 µM. Consider `O=C(Nc1ccc2[nH]nc(-c3ccccc3)c2c1)c1ccccn1`, for which the IC50 was in the range of 1 to 10 µM. For `NC(=O)c1ccc2[nH]nc(-c3cccc(NC(=O)CCc4ccccc4)c3)c2c1`, the IC50 lay within 1 to 10 µM. For `O=C(Nc1nnn[nH]1)c1ccc2[nH]nc(-c3ccc(F)cc3)c2c1` the value was 1 to 10 µM. Consider `O=C(Nc1cccc2c1CCCC2)c1cccc(-c2n[nH]c3ccc(-c4nc[nH]n4)cc23)c1`, for which the IC50 is 0.5 to 10 µM.

As for `Fc1ccc(-c2n[nH]c3ccc(-c4n[nH]c(CN5CCCC5)n4)cc23)cc1`, the IC50 was 0.5 to 10 µM. As for `COC(=O)c1ccc(C(=O)Nc2ccc3[nH]nc(-c4ccc(F)cc4)c3c2)cc1`, the IC50 was not above 10 µM.

Turning to `O=C(Nc1ccc(-c2n[nH]c3ccc(-c4nc[nH]n4)cc23)cc1)c1cccnc1`, the 50% inhibitory concentration (IC50) fell in the range of 1 to 10 µM. Regarding `O=C(O)c1ccc(NC(=O)c2ccc3[nH]nc(-c4ccc(F)cc4)c3c2)cc1`, the IC50 fell in the range of 1 to 10 µM. Regarding `CN(C)c1ccc(-c2n[nH]c3ccc(-c4ncn[nH]4)cc23)cc1`, the 50% inhibitory concentration (IC50) fell in the range of 1 to 10 µM. For `CN(C)CCOc1ccc(-c2n[nH]c3ccc(C(N)=O)cc23)cc1` the value was 1 to 10 µM.

For the compound `COC(=O)c1ccc2[nH]nc(-c3cc4ccccc4s3)c2c1`, the IC50 was not above 10 µM.

As to `COc1ccc(-c2n[nH]c3ccc(-c4nnn[nH]4)cc23)cc1`, the IC50 is 0.5 to 10 µM. `c1cc(OCCN2CCOCC2)cc(-c2n[nH]c3ccc(-c4ncn[nH]4)cc23)c1`: the half-maximal inhibitory concentration (IC50) lay in the range of 1 to 10 µM. For `C[S+]([O-])c1ccc(-c2n[nH]c3ccc(-c4ncn[nH]4)cc23)cc1` (stereo unspecified) the value was 1 to 10 µM. Consider `O=C(Nc1ccc2[nH]nc(-c3ccc(F)cc3)c2c1)c1ccccc1O`, for which the IC50 lay within 1 to 10 µM.

Turning to `O=C(Nc1cccc(-c2n[nH]c3ccc(-c4nc[nH]n4)cc23)c1)C(=O)c1c[nH]c2ccccc12`, the 50% inhibitory concentration (IC50) is 1 to 10 µM. With `Cc1n[nH]c(-c2ccc3[nH]nc(-c4ccc(F)cc4)c3c2)n1` the figure was 1 to 10 µM; with `O=C(O)CCCCNC(=O)c1ccc2[nH]nc(-c3ccc(F)cc3)c2c1`, 1 to 10 µM; with `O=C(NC1Cc2ccccc2C1)c1cccc(-c2n[nH]c3ccc(-c4ncn[nH]4)cc23)c1`, 0.5 to 10 µM.

With `NC(=O)c1ccc(NC(=O)c2ccc3[nH]nc(-c4ccc(F)cc4)c3c2)cc1`, the concentration for half-maximal inhibition (IC50) lay in the range of 1 to 10 µM. Consider `CC(C)COc1ccc(-c2n[nH]c3ccc(-c4nnn[nH]4)cc23)cc1`, for which the IC50 is 1 to 10 µM.

Take `Cc1ccc(C(=O)Nc2cccc(-c3n[nH]c4ccc(-c5nc[nH]n5)cc34)c2)cc1`: the half-maximal inhibitory concentration (IC50) lay in the range of 1 to 10 µM. With `O=C(NCc1cccnc1)c1cccc(-c2n[nH]c3ccc(-c4ncn[nH]4)cc23)c1` the figure was 0.5 to 10 µM; with `CCNc1ccc2[nH]nc(-c3ccc(F)cc3)c2c1`, not above 10 µM. As to `O=C(Nc1ccc2[nH]nc(-c3ccc(F)cc3)c2c1)N1CCOCC1`, the IC50 is not above 10 µM. With `O=C(Nc1ccc2[nH]nc(-c3ccc(F)cc3)c2c1)c1ccccn1` the figure was 1 to 10 µM; with `CN(C)CCNC(=O)c1ccc2[nH]nc(-c3ccc(F)cc3)c2c1`, not above 10 µM. With `O=C(N[C@H]1c2ccccc2C[C@H]1O)c1cccc(-c2n[nH]c3ccc(-c4ncn[nH]4)cc23)c1` the figure was 1 to 10 µM. Consider `O=C(Nc1ccccc1)c1cccc(-c2n[nH]c3ccc(-c4n[nH]c(CN5CCCC5)n4)cc23)c1`, for which the IC50 lay in the range of 0.5 to 10 µM. With `CC(=O)O[C@@H](C)C(=O)Nc1cccc(-c2n[nH]c3ccc(-c4nn[nH]n4)cc23)c1`, the IC50 was in the range of 0.5 to 10 µM. Take `c1nc(-c2ccc3[nH]nc(-c4ccc5c(c4)OCO5)c3c2)n[nH]1`: the IC50 was in the range of 1 to 10 µM.
